Where a name gives a salt, the structure may show the parent alone.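 The compound was tested at five concentrations on cells cultured in 96-well plates, with a 48-hour exposure period. GI50 = concentration required for 50% inhibition of growth.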 Active and inactive are the calls of the source. Cut-off read from the data, not from the text of the source: active = GI50 up to about 1.1 µM and inactive = higher.
How the values were obtained:
Assay in all cases: growth of human tumour cells (NCI), 48 h
SK-MEL-2 = test system: SK-MEL-2
HOP-62 = test system: HOP-62
HL-60 = test system: HL-60
SK-MEL-28 = test system: SK-MEL-28
SN12C = test system: SN12C
LOX IMVI = test system: LOX IMVI
CAKI-1 = test system: CAKI-1
HCT-116 = test system: HCT-116
OVCAR-8 = test system: OVCAR-8
NCI-H460 = test system: NCI-H460
TK-10 = test system: TK-10
UACC-62 = test system: UACC-62
NCI-H522 = test system: NCI-H522
UACC-257 = test system: UACC-257
HT-29 = test system: HT-29
SF-539 = test system: SF-539
OVCAR-4 = test system: OVCAR-4
NCI-H226 = test system: NCI-H226
ACHN = test system: ACHN
HOP-92 = test system: HOP-92

SMILES | GI50 (SK-MEL-2) | GI50 (HOP-62) | GI50 (HL-60) | GI50 (SK-MEL-28) | GI50 (SN12C) | GI50 (LOX IMVI) | GI50 (CAKI-1) | GI50 (HCT-116) | GI50 (OVCAR-8) | GI50 (NCI-H460) | GI50 (TK-10) | GI50 (UACC-62) | GI50 (NCI-H522) | GI50 (UACC-257) | GI50 (HT-29) | GI50 (SF-539) | GI50 (OVCAR-4) | GI50 (NCI-H226) | GI50 (ACHN) | GI50 (HOP-92)
Cc1cc2c3c(c1)CCCN3CCC2 | > 10 µM (inactive) | > 10 µM (inactive) | > 10 µM (inactive) | > 10 µM (inactive) | > 10 µM (inactive) | > 10 µM (inactive) | > 10 µM (inactive) | > 10 µM (inactive) | > 10 µM (inactive) | > 10 µM (inactive) | > 10 µM (inactive) | > 10 µM (inactive) | > 10 µM (inactive) | > 10 µM (inactive) | > 10 µM (inactive) | > 10 µM (inactive) | > 10 µM (inactive) | > 10 µM (inactive) | > 10 µM (inactive) | > 10 µM (inactive)
O=C(O)/C=N\N=c1[nH]c2ccccc2[nH]1 | > 100 µM (inactive) | > 100 µM (inactive) | > 100 µM (inactive) | > 100 µM (inactive) | > 100 µM (inactive) | > 100 µM (inactive) | > 100 µM (inactive) | > 100 µM (inactive) | > 100 µM (inactive) | > 100 µM (inactive) | > 100 µM (inactive) | > 100 µM (inactive) | > 100 µM (inactive) | > 100 µM (inactive) | > 100 µM (inactive) | > 100 µM (inactive) | > 100 µM (inactive) | > 100 µM (inactive) | > 100 µM (inactive) | > 100 µM (inactive)
O=C(CN1CCN(Cc2ccccc2)CC1)c1ccc2[nH]c(=O)oc2c1 | > 100 µM (inactive) | > 100 µM (inactive) | > 90.4 µM (inactive) | > 100 µM (inactive) | > 100 µM (inactive) | > 100 µM (inactive) | > 100 µM (inactive) | > 100 µM (inactive) | > 100 µM (inactive) | > 100 µM (inactive) | > 100 µM (inactive) | > 100 µM (inactive) | 74.5 µM (inactive) | > 100 µM (inactive) | > 100 µM (inactive) | > 100 µM (inactive) | > 100 µM (inactive) | > 50.6 µM (inactive) | > 100 µM (inactive) | 53.1 µM (inactive)
O=[N+]([O-])c1ccc(S[C@@H]2[C@H]3c4c(-c5ccccc5)[nH]c(-c5ccccc5)c4[C@@H]2C[C@H]3Cl)cc1 | 11.2 µM (inactive) | 3.56 µM (inactive) | 3.17 µM (inactive) | 18.1 µM (inactive) | 2.94 µM (inactive) | 3.1 µM (inactive) | 3.38 µM (inactive) | 1.76 µM (inactive) | 4.38 µM (inactive) | 2.4 µM (inactive) | 4.99 µM (inactive) | 2.83 µM (inactive) | 2.9 µM (inactive) | 14.8 µM (inactive) | 3.37 µM (inactive) | 6.75 µM (inactive) | 1.6 µM (inactive) | 6.71 µM (inactive) | 3.7 µM (inactive) | 0.895 µM (active)
O=C1C(=O)N(C2CCCCC2)C(=S)N1C1CCCCC1 | > 100 µM (inactive) | > 100 µM (inactive) | > 100 µM (inactive) | > 100 µM (inactive) | > 100 µM (inactive) | > 100 µM (inactive) | > 100 µM (inactive) | > 100 µM (inactive) | > 100 µM (inactive) | > 100 µM (inactive) | > 100 µM (inactive) | > 100 µM (inactive) | 7.76 µM (inactive) | > 100 µM (inactive) | > 100 µM (inactive) | > 100 µM (inactive) | > 100 µM (inactive) | > 100 µM (inactive) | > 100 µM (inactive) | > 100 µM (inactive)
O=[N+]([O-])c1ccc(S(=O)(=O)N=Ic2ccccc2)cc1 | > 100 µM (inactive) | > 100 µM (inactive) | > 100 µM (inactive) | > 100 µM (inactive) | > 100 µM (inactive) | > 100 µM (inactive) | > 100 µM (inactive) | > 100 µM (inactive) | > 100 µM (inactive) | > 100 µM (inactive) | > 100 µM (inactive) | > 100 µM (inactive) | > 100 µM (inactive) | > 100 µM (inactive) | > 100 µM (inactive) | > 100 µM (inactive) | > 100 µM (inactive) | > 100 µM (inactive) | > 100 µM (inactive) | > 100 µM (inactive)
CCCCCCCCCCCCCCCCCCN(C)CC(COP(=O)([O-])OCC[N+](C)(C)C)OC (centres undefined) | 38.5 µM (inactive) | 9.38 µM (inactive) | 3.66 µM (inactive) | 38.3 µM (inactive) | 27.4 µM (inactive) | 10 µM (inactive) | 5.27 µM (inactive) | 15.5 µM (inactive) | 26.6 µM (inactive) | 4.25 µM (inactive) | 3.32 µM (inactive) | 11.2 µM (inactive) | 9.51 µM (inactive) | 35.3 µM (inactive) | 4.94 µM (inactive) | 16.7 µM (inactive) | 8.09 µM (inactive) | 16.5 µM (inactive) | 22.6 µM (inactive) | 9.77 µM (inactive)
CC(C)(C)N(Cc1ccoc1)C(=O)/C=C\[S+]([O-])c1ccccc1 (centres undefined) | 20.9 µM (inactive) | 16.6 µM (inactive) | 12.7 µM (inactive) | 21.8 µM (inactive) | 20.9 µM (inactive) | 5.45 µM (inactive) | 14.5 µM (inactive) | 16.6 µM (inactive) | 14.4 µM (inactive) |  | 44.2 µM (inactive) | 20 µM (inactive) | 17.5 µM (inactive) | 19.9 µM (inactive) | 22.9 µM (inactive) | 21 µM (inactive) | 20 µM (inactive) | 25.9 µM (inactive) | 25.9 µM (inactive) | 15 µM (inactive)
CN(/N=C/c1ccc(Cl)cc1)C1=NCCCCN1 | > 10 µM (inactive) | > 100 µM (inactive) | 30.3 µM (inactive) |  | 81.5 µM (inactive) | 22.1 µM (inactive) | > 100 µM (inactive) | 48.1 µM (inactive) | > 100 µM (inactive) | > 100 µM (inactive) | > 100 µM (inactive) | 67.1 µM (inactive) | 39.4 µM (inactive) | > 100 µM (inactive) | 66.2 µM (inactive) | > 100 µM (inactive) | > 100 µM (inactive) | > 100 µM (inactive) | > 100 µM (inactive) | 47.3 µM (inactive)
O=C1CC2CC3OC3[C@H]3c4cc5c(cc4C(=O)N1C23)OCO5 (some centres undefined) | > 100 µM (inactive) | > 100 µM (inactive) | > 100 µM (inactive) | > 100 µM (inactive) | > 100 µM (inactive) | > 100 µM (inactive) | > 100 µM (inactive) | > 100 µM (inactive) | > 100 µM (inactive) | > 100 µM (inactive) | > 100 µM (inactive) | > 100 µM (inactive) | > 100 µM (inactive) |  | > 100 µM (inactive) | > 100 µM (inactive) | > 100 µM (inactive) | > 100 µM (inactive) | > 100 µM (inactive) | > 100 µM (inactive)
CCCCc1oc2ccccc2c1C(=O)c1cc(I)c(OCCN(CC)CC)c(I)c1 [AMIODARONE HYDROCHLORIDE] | 4.63 µM (inactive) | 10.6 µM (inactive) | 2.79 µM (inactive) | 4.8 µM (inactive) | 7.73 µM (inactive) | 3.82 µM (inactive) | 6.14 µM (inactive) | 4.17 µM (inactive) |  | 4.09 µM (inactive) |  | 5.28 µM (inactive) | 5.06 µM (inactive) | 5.21 µM (inactive) | 4.42 µM (inactive) | 5.07 µM (inactive) | 6.5 µM (inactive) | 4.5 µM (inactive) |  | 3.86 µM (inactive)
COc1c(OC)c(OC)c2c(c1OC)c(=O)c1ccccc1n2C [MELICOPICINE] | > 100 µM (inactive) | > 100 µM (inactive) | 57.4 µM (inactive) | > 100 µM (inactive) | > 100 µM (inactive) | > 100 µM (inactive) | > 100 µM (inactive) | > 100 µM (inactive) | > 100 µM (inactive) | > 10 µM (inactive) | > 100 µM (inactive) | > 100 µM (inactive) | > 100 µM (inactive) | > 100 µM (inactive) | > 100 µM (inactive) | > 100 µM (inactive) | 65.6 µM (inactive) | > 100 µM (inactive) | > 100 µM (inactive) | > 100 µM (inactive)

Source: ChEMBL document CHEMBL1201862, “PubChem BioAssay data set” (2004)
